Data from patent US12528767B2, “HDAC6 inhibitors and uses thereof” (Eikonizo Therapeutics, Inc., priority 2019, dated 2026).
Where two headings read alike, the source gives them in different places.

Biological target: T1, Full length Human HDAC6 (Homo sapiens, UniProt Q9UBN7)
T1 sequence (Q9UBN7 1-1215): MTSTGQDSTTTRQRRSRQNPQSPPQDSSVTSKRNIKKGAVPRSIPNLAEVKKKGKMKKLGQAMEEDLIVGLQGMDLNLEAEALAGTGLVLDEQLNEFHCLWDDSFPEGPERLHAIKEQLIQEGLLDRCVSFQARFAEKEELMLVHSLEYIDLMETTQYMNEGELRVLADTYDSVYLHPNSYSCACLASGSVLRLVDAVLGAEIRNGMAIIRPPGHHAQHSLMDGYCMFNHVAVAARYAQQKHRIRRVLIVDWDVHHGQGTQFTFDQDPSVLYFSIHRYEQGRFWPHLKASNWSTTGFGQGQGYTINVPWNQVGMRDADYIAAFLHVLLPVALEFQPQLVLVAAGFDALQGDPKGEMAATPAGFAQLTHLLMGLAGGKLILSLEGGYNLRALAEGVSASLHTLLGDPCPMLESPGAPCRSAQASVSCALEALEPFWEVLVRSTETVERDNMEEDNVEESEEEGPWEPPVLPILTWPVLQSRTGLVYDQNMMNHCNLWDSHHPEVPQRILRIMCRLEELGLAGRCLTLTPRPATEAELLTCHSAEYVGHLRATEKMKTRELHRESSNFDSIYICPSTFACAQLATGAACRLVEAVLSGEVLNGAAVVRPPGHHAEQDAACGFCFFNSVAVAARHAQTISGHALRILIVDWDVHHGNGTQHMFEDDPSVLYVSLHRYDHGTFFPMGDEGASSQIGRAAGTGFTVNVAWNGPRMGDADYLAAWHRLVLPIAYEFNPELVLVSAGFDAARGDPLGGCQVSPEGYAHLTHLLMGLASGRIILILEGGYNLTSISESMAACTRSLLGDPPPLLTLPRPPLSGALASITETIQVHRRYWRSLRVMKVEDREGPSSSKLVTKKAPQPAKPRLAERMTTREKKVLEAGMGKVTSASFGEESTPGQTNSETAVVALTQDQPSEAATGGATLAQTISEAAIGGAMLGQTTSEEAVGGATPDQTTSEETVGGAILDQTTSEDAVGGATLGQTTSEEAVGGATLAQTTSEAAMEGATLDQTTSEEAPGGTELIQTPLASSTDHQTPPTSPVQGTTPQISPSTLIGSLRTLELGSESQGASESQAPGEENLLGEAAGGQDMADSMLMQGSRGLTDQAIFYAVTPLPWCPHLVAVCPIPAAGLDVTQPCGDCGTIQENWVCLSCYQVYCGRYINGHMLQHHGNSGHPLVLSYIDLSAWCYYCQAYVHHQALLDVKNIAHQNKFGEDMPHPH
Details: ratio of HDAC8 IC50/HDAC6 IC50

## CC[C@H](c1ccccc1)N1CCc2cc(C(=O)NO)cc(F)c2C1 (single isomer, unassigned) [compound 30]
Table 1, number
  Selectivity (6 v 8) (fold): 262.4 fold
Table 1, range class
  Selectivity (6 v 8) (fold): IV (IV: >100-1000)

## CC[C@@H](c1ccccc1)N1CCc2cc(C(=O)NO)cc(F)c2C1 (single isomer, unassigned) [compound 31]
Table 1, number
  Selectivity (6 v 8) (fold): 468.8 fold
Table 1, range class
  Selectivity (6 v 8) (fold): IV (IV: >100-1000)

## CC[C@@H]1CCCN1Cc1ccc(C(=O)NO)cc1F (single isomer, unassigned) [compound 48]
Table 1, number
  Selectivity (6 v 8) (fold): 15.6 fold
Table 1, range class
  Selectivity (6 v 8) (fold): III (III: >10-100)

## CC[C@H]1CCCN1Cc1ccc(C(=O)NO)cc1F (single isomer, unassigned) [compound 49]
Table 1, number
  Selectivity (6 v 8) (fold): 15.4 fold
Table 1, range class
  Selectivity (6 v 8) (fold): III (III: >10-100)

## O=C(NO)c1ccc2c(c1)CCN1CCCC[C@@H]21 (single isomer, unassigned) [compound 89]
Table 1, number
  Selectivity (6 v 8) (fold): 3.1 fold
Table 1, range class
  Selectivity (6 v 8) (fold): II (II: >1-10)

## O=C(NO)c1ccc2c(c1)CCN1CCCC[C@H]21 (single isomer, unassigned) [compound 90]
Table 1, number
  Selectivity (6 v 8) (fold): 3.6 fold
Table 1, range class
  Selectivity (6 v 8) (fold): II (II: >1-10)

## O=C(NO)c1ccc2c(c1)C[C@H]1CCCN1C2 (single isomer, unassigned) [compound 122]
Table 1, number
  Selectivity (6 v 8) (fold): 14.5 fold
Table 1, range class
  Selectivity (6 v 8) (fold): III (III: >10-100)

## CC1(C)C[C@@H]2Cc3cc(C(=O)NO)cc(F)c3CN2C1 (single isomer, unassigned) [compound 126]
Table 1, number
  Selectivity (6 v 8) (fold): 37.4 fold
Table 1, range class
  Selectivity (6 v 8) (fold): III (III: >10-100)

## O=C(NO)c1cc(F)c2c(c1)C[C@@H]1COCCN1C2 (single isomer, unassigned) [compound 129]
Table 1, number
  Selectivity (6 v 8) (fold): >2.9 fold
Table 1, range class
  Selectivity (6 v 8) (fold): V (V: >1000)

## O=C(NO)c1cc(F)c2c(c1)C[C@H]1COCCN1C2 (single isomer, unassigned) [compound 130]
Table 1, number
  Selectivity (6 v 8) (fold): >2.8 fold
Table 1, range class
  Selectivity (6 v 8) (fold): V (V: >1000)

## O=C(NO)c1cc(F)c2c(c1)C[C@@H]1CCC3(CCCCC3)CN1C2 (single isomer, unassigned) [compound 137]
Table 1, number
  Selectivity (6 v 8) (fold): 126.4 fold
Table 1, range class
  Selectivity (6 v 8) (fold): IV (IV: >100-1000)

## O=C(NO)c1ccc2c(c1)CN1CCCC[C@@H]1C2 (single isomer, unassigned) [compound 143]
Table 1, number
  Selectivity (6 v 8) (fold): 88.8 fold
Table 1, range class
  Selectivity (6 v 8) (fold): III (III: >10-100)

## O=C(NO)c1ccc2c(c1)CN1CCCC[C@H]1C2 (single isomer, unassigned) [compound 144]
Table 1, number
  Selectivity (6 v 8) (fold): 26.7 fold
Table 1, range class
  Selectivity (6 v 8) (fold): III (III: >10-100)

## O=C(NO)c1ccc2c(c1)CCN1CCC[C@H]21 (single isomer, unassigned) [compound 148]
Table 1, number
  Selectivity (6 v 8) (fold): 1.9 fold
Table 1, range class
  Selectivity (6 v 8) (fold): II (II: >1-10)

## O=C(NO)c1ccc2c(c1)CCN1CCC[C@@H]21 (single isomer, unassigned) [compound 149]
Table 1, number
  Selectivity (6 v 8) (fold): 6.5 fold
Table 1, range class
  Selectivity (6 v 8) (fold): II (II: >1-10)

## CN1Cc2cc(C(=O)NO)ccc2[C@@H]2CCCN21 (single isomer, unassigned) [compound 160]
Table 1, number
  Selectivity (6 v 8) (fold): 1.8 fold
Table 1, range class
  Selectivity (6 v 8) (fold): II (II: >1-10)

## CN1Cc2cc(C(=O)NO)ccc2[C@H]2CCCN21 (single isomer, unassigned) [compound 161]
Table 1, number
  Selectivity (6 v 8) (fold): 2 fold
Table 1, range class
  Selectivity (6 v 8) (fold): II (II: >1-10)
